Test results: PubChem BioAssay AID1259407 (Chemical Carcinogenesis Research Information System (CCRIS), 2018)
The source made the active and inactive calls. No rule for the calls is given here.

Tested on: CCRIS mutagenicity, Ames/micronucleus/aberration tests
Assay: CCRIS mutagenicity studies

Measured: mutagenic call

Nc1ccc(N)cc1
active: End Point: IN VITRO CHROMOSOMAL ABERRATIONS, Test System: CHL CELLS, Metabolic Activation: NONE active; positive (structural changes) | End Point: IN VITRO CHROMOSOMAL ABERRATIONS, Test System: CHL CELLS, Metabolic Activation: RAT, LIVER, S-9, SODIUM PHENOBARBITAL AND 5,6-BENZOFLAVONE active; positive (structural changes) | End Point: IN VITRO MICRONUCLEUS, Test System: CHL/IU CELLS, Metabolic Activation: RAT, LIVER, S-9, PHENOBARBITAL AND 5,6-BENZOFLAVONE active; positive | End Point: In vitro micronucleus, Test System: Human lymphocytes, Metabolic Activation: Rat, Liver, S-9, Aroclor 1254 active; positive | Test System: AMES SALMONELLA TYPHIMURIUM, Strain/Indicator: TA98(NR), Metabolic Activation: RAT, LIVER, S-9, AROCLOR 1254, Method: PREINCUBATION active; positive | Test System: AMES SALMONELLA TYPHIMURIUM, Strain/Indicator: TA98, Metabolic Activation: HAMSTER, LIVER, S-9, AROCLOR 1254 (30%), Method: PREINCUBATION active; positive | Test System: AMES SALMONELLA TYPHIMURIUM, Strain/Indicator: TA98, Metabolic Activation: RAT LIVER S-9, PHENOBARBITAL AND BETA-NAPHTHOFLAVONE, Method: PREINCUBATION active; positive | Test System: AMES SALMONELLA TYPHIMURIUM, Strain/Indicator: TA98, Metabolic Activation: RAT, LIVER, S-9, AROCLOR 1254 active; positive | Test System: AMES SALMONELLA TYPHIMURIUM, Strain/Indicator: TA98, Metabolic Activation: RAT, LIVER, S-9, AROCLOR 1254 (30%), Method: PREINCUBATION active; positive | Test System: AMES SALMONELLA TYPHIMURIUM, Strain/Indicator: TA100(NR), Metabolic Activation: NONE, Method: PREINCUBATION active; positive | Test System: AMES SALMONELLA TYPHIMURIUM, Strain/Indicator: TA1538, Metabolic Activation: RAT, LIVER, S-9, PHENOBARBITAL, Method: STANDARD PLATE active; positive
inactive: Test System: AMES SALMONELLA TYPHIMURIUM, Strain/Indicator: TA98(NR), Metabolic Activation: NONE, Method: PREINCUBATION inactive; negative | Test System: AMES SALMONELLA TYPHIMURIUM, Strain/Indicator: TA98, Metabolic Activation: NONE inactive; negative | Test System: AMES SALMONELLA TYPHIMURIUM, Strain/Indicator: TA98, Metabolic Activation: NONE, Method: PREINCUBATION inactive; negative | Test System: AMES SALMONELLA TYPHIMURIUM, Strain/Indicator: TA98, Metabolic Activation: NONE, Method: STANDARD PLATE inactive; negative | Test System: AMES SALMONELLA TYPHIMURIUM, Strain/Indicator: TA98, Metabolic Activation: PEA APICAL BUD S-9, Method: PREINCUBATION inactive; negative | Test System: AMES SALMONELLA TYPHIMURIUM, Strain/Indicator: TA98, Metabolic Activation: PEA APICAL BUD S-9, Method: STANDARD PLATE inactive; negative | Test System: AMES SALMONELLA TYPHIMURIUM, Strain/Indicator: TA98, Metabolic Activation: PLANT (PERSEA AMERICANA) S-117, Method: STANDARD PLATE inactive; negative | Test System: AMES SALMONELLA TYPHIMURIUM, Strain/Indicator: TA98, Metabolic Activation: PLANT (ZEA MAYS) S-9, Method: STANDARD PLATE inactive; negative | Test System: AMES SALMONELLA TYPHIMURIUM, Strain/Indicator: TA100(NR), Metabolic Activation: RAT, LIVER, S-9, AROCLOR 1254, Method: PREINCUBATION inactive; negative | Test System: AMES SALMONELLA TYPHIMURIUM, Strain/Indicator: TA100, Metabolic Activation: HAMSTER, LIVER, S-9, AROCLOR 1254 (30%), Method: PREINCUBATION inactive; negative | Test System: AMES SALMONELLA TYPHIMURIUM, Strain/Indicator: TA100, Metabolic Activation: NONE, Method: PREINCUBATION inactive; negative | Test System: AMES SALMONELLA TYPHIMURIUM, Strain/Indicator: TA100, Metabolic Activation: NONE, Method: STANDARD PLATE inactive; negative | Test System: AMES SALMONELLA TYPHIMURIUM, Strain/Indicator: TA100, Metabolic Activation: PEA APICAL BUD S-9, Method: PREINCUBATION inactive; negative | Test System: AMES SALMONELLA TYPHIMURIUM, Strain/Indicator: TA100, Metabolic Activation: PEA APICAL BUD S-9, Method: STANDARD PLATE inactive; negative | Test System: AMES SALMONELLA TYPHIMURIUM, Strain/Indicator: TA100, Metabolic Activation: PLANT (PERSEA AMERICANA) S-117, Method: STANDARD PLATE inactive; negative | Test System: AMES SALMONELLA TYPHIMURIUM, Strain/Indicator: TA100, Metabolic Activation: PLANT (ZEA MAYS) S-9, Method: STANDARD PLATE inactive; negative | Test System: AMES SALMONELLA TYPHIMURIUM, Strain/Indicator: TA100, Metabolic Activation: RAT LIVER S-9, PHENOBARBITAL AND BETA-NAPHTHOFLAVONE, Method: PREINCUBATION inactive; negative | Test System: AMES SALMONELLA TYPHIMURIUM, Strain/Indicator: TA100, Metabolic Activation: RAT, LIVER, S-9, AROCLOR 1254 (30%), Method: PREINCUBATION inactive; negative | Test System: AMES SALMONELLA TYPHIMURIUM, Strain/Indicator: TA100, Metabolic Activation: RAT, LIVER, S-9, AROCLOR 1254, Method: PREINCUBATION inactive; negative | Test System: AMES SALMONELLA TYPHIMURIUM, Strain/Indicator: TA100, Metabolic Activation: RAT, LIVER, S-9, AROCLOR 1254, Method: STANDARD PLATE inactive; negative | Test System: AMES SALMONELLA TYPHIMURIUM, Strain/Indicator: TA102, Metabolic Activation: NONE, Method: STANDARD PLATE inactive; negative | Test System: AMES SALMONELLA TYPHIMURIUM, Strain/Indicator: TA1535, Metabolic Activation: NONE, Method: PREINCUBATION inactive; negative | Test System: AMES SALMONELLA TYPHIMURIUM, Strain/Indicator: TA1535, Metabolic Activation: RAT LIVER S-9, PHENOBARBITAL AND BETA-NAPHTHOFLAVONE, Method: PREINCUBATION inactive; negative | Test System: AMES SALMONELLA TYPHIMURIUM, Strain/Indicator: TA1537, Metabolic Activation: NONE, Method: PREINCUBATION inactive; negative | Test System: AMES SALMONELLA TYPHIMURIUM, Strain/Indicator: TA1537, Metabolic Activation: RAT LIVER S-9, PHENOBARBITAL AND BETA-NAPHTHOFLAVONE, Method: PREINCUBATION inactive; negative
